This note sets out measurements from ChEMBL document CHEMBL1201862, “PubChem BioAssay data set” (2004).

Test in all cases: DTP human tumour cell line panel, 48 h
Assay [1] deals with U-251.
Assay [2] concerns CCRF-CEM.
The subject of assay [3] is OVCAR-8.
Assay [4] has as its system NCI-H226.
The subject of assay [5] is Malme-3M.
Assay [6] concerns SN12C.
The test system of assay [7] is NCI-H460.
Assay [8] has as its system KM12.
The test system of assay [9] is SNB-19.
The test system of assay [10] is SK-OV-3.
The test system of assay [11] is COLO 205.
Assay [12] concerns SW-620.
For assay [13], the system named is SR.
For assay [14], the system named is CAKI-1.
In assay [15] the test system is A498.
Assay [16] relates to HCT-15.

Molecules are shown by their SMILES.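 The compound was tested at five concentrations on cells cultured in 96-well plates, with a 48-hour exposure period. GI50 is the concentration that inhibits growth by half.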 Calls of active or inactive are those of the source. Rule as the data show it: active = GI50 up to about 1.1 µM and inactive = higher. Some results are limits rather than exact numbers.

What is called GI50 is the concentration at which growth is held to half of that of the control. In the case of `COc1cc2c(c(OC)c1OC)-c1ccc(SC)c(=O)cc1C(CC(=O)Oc1cccc(C#N)c1)C2` (stereo not drawn), the 50% growth inhibitory concentration (GI50) is 0.354 µM (active) in assay [1]; 0.337 µM (active) in assay [2]; 0.423 µM (active) in [3]; 0.222 µM (active) in [4]; 0.175 µM (active) in assay [5]; 0.48 µM (active) in assay [6]. The GI50 in [7] was 0.365 µM (active); in [8] it was 0.292 µM (active); in assay [9], 0.678 µM (active); in assay [10], 0.046 µM (active); in assay [11] it was 0.336 µM (active); in assay [12], 0.327 µM (active). The GI50 in assay [13] is 0.134 µM (active); in assay [14], 3.42 µM (inactive); in assay [15] it was 0.015 µM (active); in assay [16], 0.33 µM.
Turning to `O=C1OC(O)C(Oc2c(Cl)cccc2Cl)=C1Cl` (stereo not drawn), the GI50 is 13.8 µM (inactive) in assay [1]; 19.9 µM (inactive) in [2]; 17.5 µM (inactive) in assay [3]; 18.4 µM (inactive) in [4]; 26.5 µM (inactive) in [5]; 17 µM (inactive) in assay [6]. For the same molecule, the GI50 in [7] was 15.5 µM (inactive); in assay [8], 22.3 µM (inactive); in assay [9], 27.5 µM (inactive); in [10], 19.5 µM (inactive); in assay [11], 16.5 µM (inactive); in [12] it was 15.1 µM (inactive). In addition, the GI50 in [13] is 21.7 µM (inactive); in [14] it was 18.9 µM (inactive); in assay [15], 22.2 µM (inactive); in assay [16], 15.6 µM.
As to `Cc1cc(NS(=O)(=O)c2ccc(NC(=O)c3ccc(Cl)c4c(Nc5ccc(S(N)(=O)=O)cc5)c5ccccc5nc34)cc2)no1`, the GI50 in assay [1] was 11.5 µM (inactive); in assay [3], 17.9 µM (inactive); in assay [4] it was 20.3 µM (inactive); in assay [5], 15.5 µM (inactive); in assay [6] it was 23.1 µM (inactive); in assay [7] it was 25.8 µM (inactive). For the same molecule, the GI50 is 19.6 µM (inactive) in [8]; 14.7 µM (inactive) in [9]; 34.8 µM (inactive) in assay [10]; 18.7 µM (inactive) in assay [11]; 17.4 µM (inactive) in [12]; 20.4 µM (inactive) in [13]. The values for the GI50 in [14], in assay [15] and in assay [16] were 21.1 µM (inactive), 23.3 µM (inactive) and over 100 µM, respectively.
Turning to `CCOC(=O)CNC1C(NC(C)=O)C(OC)OC2COC(c3ccccc3)OC21` (stereo not drawn), the GI50 in [1], in assay [2], in assay [3], in [4], in assay [5] and in assay [6] was > 100 µM (inactive) each time. Also, the GI50 in assay [7], in [8], in assay [9], in assay [10], in [11] and in assay [12] was > 100 µM (inactive) throughout. The GI50 in [14] was > 100 µM (inactive); in [15], > 100 µM (inactive); in [16], over 100 µM.
Turning to `OCCCCOC(c1ccccc1)(c1ccccc1)c1ccccc1`, the GI50 in assay [1], in assay [2], in [3], in [4], in assay [5] and in assay [6] was > 100 µM (inactive) each time. Besides, the GI50 in [7], in assay [8], in assay [10], in assay [11], in assay [12] and in assay [13] was > 100 µM (inactive) throughout. Besides, the GI50 in [14] is > 100 µM (inactive); in [16], over 100 µM.
On to `CC(=O)NC(CCCCN)C(=O)NCc1ccccc1` (stereo not drawn), for which the GI50 in assay [1], in [2], in assay [3], in assay [4], in [5] and in assay [6] was > 100 µM (inactive) throughout. In addition, the GI50 in assay [7], in assay [8], in assay [9], in assay [10], in [11] and in assay [12] was > 100 µM (inactive) throughout. For the same molecule, the GI50 in assay [14] was > 100 µM (inactive); in [15], > 100 µM (inactive); in assay [16] it was over 100 µM.
For the molecule `COc1cccc2c1C(=O)c1c(O)c3c(c(O)c1C2=O)C[C@@](O)(C(C)O)C[C@@H]3OC1CC(N)C(O)C(C)O1` (stereo partly drawn), the GI50 in assay [1] is 0.885 µM (active); in [2], 0.148 µM (active); in assay [3], 1.14 µM (inactive); in assay [4], 0.607 µM (active); in assay [5], 0.491 µM (active); in assay [6], 0.993 µM (active). For the same molecule, the 50% growth inhibitory concentration (GI50) is 0.329 µM (active) in assay [7]; 2.24 µM (inactive) in assay [8]; 0.883 µM (active) in [9]; 2.72 µM (inactive) in assay [10]; 1.41 µM (inactive) in assay [11]; 1.05 µM (active) in assay [12]. The GI50 is 0.16 µM (active) in assay [13], 0.408 µM (active) in [14], 2.18 µM (inactive) in assay [15] and 8.28 µM in assay [16].
On to `C=CCC(C)(C(=O)NCCC)C(=O)c1ccccc1O` (stereo not drawn), for which the GI50 in assay [1], in assay [2], in assay [3], in assay [4], in assay [5] and in [6] was > 100 µM (inactive) throughout. Further, the GI50 in [7], in assay [8], in assay [9], in assay [10], in assay [11] and in assay [12] was > 100 µM (inactive) throughout. Further, the GI50 is > 100 µM (inactive) in assay [13], > 100 µM (inactive) in assay [14], > 100 µM (inactive) in [15] and over 100 µM in assay [16].
Regarding `C=CCNC1=C(C(=O)OCC)C(=O)CO1`, the GI50 in assay [1], in assay [2], in assay [3], in [4], in assay [5] and in assay [6] was > 100 µM (inactive) throughout. Further, the GI50 in [7], in assay [9], in assay [12], in assay [13], in assay [14] and in [15] was > 100 µM (inactive) in each case. The same molecule came in with a 50% growth inhibitory concentration (GI50) in [16] of over 100 µM.
On to `CC(C(=O)c1ccccc1)C1(O)C(=O)Nc2ccccc21` (stereo not drawn), for which the GI50 in [1], in [2], in [4], in assay [5], in assay [6] and in [7] was > 100 µM (inactive) in each case. Further, the GI50 in assay [8], in assay [9], in [10], in assay [11], in [12] and in assay [13] was > 100 µM (inactive) throughout. The results for the GI50 in assay [14], in [15] and in assay [16] were > 100 µM (inactive), > 100 µM (inactive) and over 100 µM, respectively.
Regarding `C=CCNC(=S)N1CC(C)C(=O)Nc2cc(Cl)ccc21` (stereo not drawn), the GI50 is > 100 µM (inactive) in assay [1]; > 100 µM (inactive) in assay [3]; 54.2 µM (inactive) in assay [4]; 82 µM (inactive) in assay [5]; > 100 µM (inactive) in assay [6]; > 100 µM (inactive) in assay [7]. Moreover, the GI50 in assay [8], in assay [9], in assay [10], in assay [11], in assay [13] and in assay [14] was > 100 µM (inactive) each time. The GI50 in [15] was > 100 µM (inactive); in [16], over 100 µM.
In the case of `COC(=O)[C@H](CC(C)C)NC(=O)[C@H](Cc1ccccc1)N1CC2C=CC1C2` (stereo partly drawn), the GI50 in assay [1], in [2], in assay [3], in assay [4], in assay [5] and in assay [6] was > 100 µM (inactive) in each case. For the same molecule, the GI50 in assay [7], in [8], in assay [9], in [10], in assay [11] and in assay [12] was > 100 µM (inactive) each time. In addition, the GI50 in assay [14] was > 100 µM (inactive); in assay [15] it was > 100 µM (inactive); in assay [16] it was over 100 µM.
As for `c1ccc2[nH]c(-c3nc4ccccc4o3)nc2c1`, the GI50 was > 100 µM (inactive) in assay [1]; > 100 µM (inactive) in [2]; > 100 µM (inactive) in [3]; 86.3 µM (inactive) in assay [4]; > 100 µM (inactive) in assay [5]; > 100 µM (inactive) in assay [6]. Further, the GI50 was > 100 µM (inactive) in assay [7]; > 100 µM (inactive) in assay [8]; > 100 µM (inactive) in assay [10]; 49.9 µM (inactive) in assay [11]; > 100 µM (inactive) in assay [13]; > 100 µM (inactive) in assay [15]. This molecule gave a GI50 in assay [16] of over 100 µM.
In the case of `Cc1c(/C=N/NC(=O)c2ccccc2)c(=O)n(-c2ccccc2)n1C`, the GI50 in assay [1], in assay [2], in assay [3], in assay [4], in assay [5] and in assay [6] was > 100 µM (inactive) each time. Also, the GI50 in [7], in [8], in assay [9], in assay [10], in [11] and in assay [12] was > 100 µM (inactive) in each case. The GI50 is > 100 µM (inactive) in assay [13], > 100 µM (inactive) in assay [15] and over 100 µM in assay [16].
